Data from PMC5228037, “Discovery and Mechanistic Characterization of Selective Inhibitors of H2S-producing Enzyme: 3-Mercaptopyruvate Sulfurtransferase (3MST) Targeting Active-site Cysteine Persulfide” (Scientific Reports, 2017).
pKd: −log10 of the molar value. “Also recorded” adds a separate entry of the source.

Legend:
persulfurated 3MST = molecular target: T1, persulfurated 3MST (Mus musculus, UniProt Q99J99); assay: ITC analysis with persulfurated 3MST; format: binding; conditions: 25 °C; for ΔH (ITC): persulfurated 3MST; for pKd: persulfurated (3MP-treated) 3MST, pH 9, read-out: Dissociation constant Kd (ITC)
T1 construct: The recombinant full-length wild-type mouse 3MST; made in house; host or cells: E. coli JM109 (DE3)
T1 sequence (Q99J99 1-297): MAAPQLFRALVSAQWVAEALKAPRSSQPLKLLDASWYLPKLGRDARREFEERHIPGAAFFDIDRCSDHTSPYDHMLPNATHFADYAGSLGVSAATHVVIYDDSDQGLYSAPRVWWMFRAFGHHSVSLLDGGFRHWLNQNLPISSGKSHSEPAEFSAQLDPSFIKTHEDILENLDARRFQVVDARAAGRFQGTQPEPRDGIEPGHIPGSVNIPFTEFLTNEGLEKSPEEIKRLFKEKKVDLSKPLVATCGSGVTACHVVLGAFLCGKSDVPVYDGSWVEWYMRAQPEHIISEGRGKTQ
Procedure: (§1) The recombinant full-length wild-type mouse 3MST and mutant m3MST (C65S/C255S/C264S) were expressed as an N-terminal His-tagged protein ([…]-3MST) in E. coli JM109 (DE3). The pET44a(+) vector (Novagen) was used as an expression vector. Cells were grown at 37 °C in LB broth (Miller) or 2 × YT broth containing 0.1 g/L ampicillin to OD600 about 0.5, and then protein expression was induced by adding IPTG (final conc. 0.5 mM (LB), 1 mM (2 × YT)). Cells were cultured overnight at 18–20 °C with shaking and harvested at 4 °C by centrifugation at 9,000 rpm for 5 min. Harvested cells were resuspended in lysis buffer containing 0.1 M HEPES-NaOH pH 8, 0.5 M NaCl, 0% or 10% glycerol, 0.5 mM TCEP, 1 mM PMSF, and 1% EtOH, and disrupted by sonication. Cell lysis solutions were centrifuged at 20,000 rpm for 20 min. […] The proteins were further purified on HisTrap HP (GE Healthcare) by increasing the imidazole concentration in buffer containing 0.02 M HEPES pH 8, 0.15 M NaCl, 10% glycerol, and 0.05 mM TCEP until proteins were eluted. Then the His-tag was removed by GST-fusion HRV 3 C protease digestion. The proteins were further purified by anion exchange chromatography on a HiTrap Q HP (GE Healthcare) by increasing the NaCl concentration in buffer containing 0.02 M HEPES pH 8, 10% glycerol, 0.5 mM TCEP until proteins were eluted, and then by gel filtration chromatography on Superdex 75 prep grade using buffer containing 0.02 M HEPES pH 7.5, 0.3 M NaCl, 0.5 mM TCEP. Wild-type 3MST was used in ITC analysis and mutant 3MST was used for crystallization.
Persulfurated 3MST was prepared as follows: 3MST-3MP solution (5 μM 3MST, 25 μM 3MP, 20 μM TCEP, 0.02 M glycine-NaOH pH9, 0.1 M NaCl) was incubated for 2 hr at room temperature. To prevent buffer mismatch and to remove unreacted 3MP and reaction product (pyruvate), the reaction solution was exchanged to ITC measurement solution (0.02 M glycine-NaOH pH 9, 0.1 M NaCl, 5% DMSO) using an Amicon Ultra (10 K) (Millipore) or Vivaspin (10 K) (Sartorius). Non-persulfurated 3MST solution was also prepared by buffer exchange. Both inhibitors were dissolved in the ITC measurement solution. Inhibitor solution (0.5 mM compound 1 or 0.25 mM compound 3) were titrated into a protein solution (0.05 mM 3MST) at 25 °C using a MicroCal iTC200 (GE Healthcare). The first injection of 0.4 μL was followed by 18 injections of 2 μL with 150 s between each injection. Each experiment was repeated three times (n = 3). For data analysis, the first injection peak was removed. Data analyses and curve fitting to a single-site binding model were performed by Origin7 SR4 software (OriginLab).

non-persulfurated 3MST = molecular target: T2, non-persulfurated 3MST (Mus musculus, UniProt Q99J99); assay: ITC analysis with non-persulfurated 3MST; format: binding; conditions: 3MP-untreated 3MST
T2 construct: The recombinant full-length wild-type mouse 3MST; made in house; host or cells: E. coli JM109 (DE3)
T2 sequence (Q99J99 1-297): T1 sequence (Q99J99 1-297)
Procedure: as §1, with “The proteins were further purified by anion exchange chromatography on a HiTrap Q HP (GE Healthcare) by increasing the NaCl concentration in buffer containing 0.02 M HEPES pH 8, 10% glycerol, 0.5 mM TCEP until proteins were eluted, and then by gel filtration chromatography on Superdex 75 prep grade using buffer containing 0.02 M HEPES pH 7.5, 0.3 M NaCl, 0.5 mM TCEP. Wild-type 3MST was used in ITC analysis and mutant 3MST was used for crystallization.” left out

| Compound | ΔH (ITC) (persulfurated 3MST) | pKd (persulfurated 3MST) | Binding to non-persulfurated 3MST (ITC heat release) (non-persulfurated 3MST) |
| --- | --- | --- | --- |
| NC(=O)c1ccsc1NC(=O)CSc1nc2ccccc2c(=O)[nH]1 [compound 1] | -9.37 kcal/mol | 5.52 | no heat release; also recorded: do not bind |
| Cc1cc(=O)[nH]c(SCC(=O)c2cccc3ccccc23)n1 [compound 3] | -11.76 kcal/mol | 6.30 | no heat release; also recorded: do not bind |
